Measured values as given in patent publication US8940310B2, “Methods of treatment using TLR7 and/or TLR9 inhibitors” (Dynavax Technologies Corporation, priority 2010, dated 2015).

Test system: TLR7 and TLR9
Test: Tape stripping skin injury in 129 mice
Format: in vivo
Conditions: 24 hr
Protocol: C57BL/6 and 129 mice were purchased from Charles River Laboratories. (NZBxNZW)F1 female mice were purchased from Jackson Laboratories and used at 18-22 weeks of age. MyD88/KO and TLR9/KO mouse colonies were maintained at Simonsen Laboratories and used with age matched C57BL/6 wild type controls at 8-12 weeks of age. Tape stripping was performed after shaving the dorsal area (3×3 cm) using 10 strokes with duct tape. IRS was administered just before tape stripping SC at a distant site. Alternatively, in (NZBxNZW)F1 mice, IRS was administered long term. In certain experiments PDC and neutrophils were depleted with 250 μg of antibody given IP at day −2 and day 0, eight hours before tape stripping. Anti-120G8 (Imgenex) was used for depletion of PDC (Asselin-Paturel et al., 2003), and anti-GR1-LY6G (clone 1A8; Biolegend) was used for depletion of neutrophils (Daley et al., 2008). […] Percentage of area with open lesions in (NZBxNZW)F1 and normal mice was evaluated with Nikon software NIS-elements.
For analysis of cellular infiltrate mice were sacrificed 24 hr later and epidermis and derma were mechanically separated followed by enzymatic digestion with 0.28 U/ML of Liberase 3 (Roche) for 20 minutes at 37° C., passed trough a 70 μm filter washed in RPMI without serum, counted and stained for flow cytometric analyses. […]

5′-TGCTCCTGGAGGGGTTGT-3′ (DNA, backbone not given here) [SEQ ID NO:42]
expression of IFN-α regulated and pro-inflammatory genes in skin (100 μg s.c. before tape stripping): significantly reduced the expression of both IFN-α regulated genes and pro-inflammatory genes | infiltration of cells including PDC and neutrophils: no measurable effect on infiltration of cells
